Measurements taken from ChEMBL document CHEMBL5465560, “Selectivity Literature for EUbOPEN Chemogenomic Library” (2024).
Blank lines part the entries; values can stand above or below the compound they belong to.

What was measured:
[1] = target: T1, Eukaryotic elongation factor 2 kinase (Homo sapiens) (UniProt O00418); experiment: Selectivity interaction (Kinase panel (Invitrogen)) EUB0000639a EEF2K; details: at 200 nM
T1 sequence (whole entry): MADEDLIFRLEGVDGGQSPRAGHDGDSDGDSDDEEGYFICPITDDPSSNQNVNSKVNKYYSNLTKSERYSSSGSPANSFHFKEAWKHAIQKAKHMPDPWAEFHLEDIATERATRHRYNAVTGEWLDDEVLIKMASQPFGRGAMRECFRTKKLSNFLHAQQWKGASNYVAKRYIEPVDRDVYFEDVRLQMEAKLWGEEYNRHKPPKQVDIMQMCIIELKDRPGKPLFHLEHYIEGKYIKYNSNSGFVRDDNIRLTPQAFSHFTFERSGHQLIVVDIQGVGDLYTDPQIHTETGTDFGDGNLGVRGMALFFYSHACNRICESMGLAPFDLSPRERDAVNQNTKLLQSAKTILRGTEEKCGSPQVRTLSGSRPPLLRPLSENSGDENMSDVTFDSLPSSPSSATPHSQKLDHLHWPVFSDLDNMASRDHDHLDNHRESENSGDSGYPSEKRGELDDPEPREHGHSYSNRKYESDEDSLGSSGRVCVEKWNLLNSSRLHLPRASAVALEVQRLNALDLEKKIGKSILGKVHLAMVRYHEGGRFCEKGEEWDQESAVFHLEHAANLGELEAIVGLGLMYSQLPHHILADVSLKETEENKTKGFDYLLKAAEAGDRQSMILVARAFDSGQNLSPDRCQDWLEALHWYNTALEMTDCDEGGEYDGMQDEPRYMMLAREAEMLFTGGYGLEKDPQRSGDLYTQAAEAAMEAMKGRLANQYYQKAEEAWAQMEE

[2] = target: T2, Mitogen-activated protein kinase kinase kinase 3 (Homo sapiens) (UniProt Q99759); experiment: Selectivity interaction (ActivX KiNativ screen (kinase selectivity in THP-1 cell lysates)) EUB0000639a MAP3K3; type: subcellular; details: lysate, at 0.2 µM
T2 sequence (whole entry): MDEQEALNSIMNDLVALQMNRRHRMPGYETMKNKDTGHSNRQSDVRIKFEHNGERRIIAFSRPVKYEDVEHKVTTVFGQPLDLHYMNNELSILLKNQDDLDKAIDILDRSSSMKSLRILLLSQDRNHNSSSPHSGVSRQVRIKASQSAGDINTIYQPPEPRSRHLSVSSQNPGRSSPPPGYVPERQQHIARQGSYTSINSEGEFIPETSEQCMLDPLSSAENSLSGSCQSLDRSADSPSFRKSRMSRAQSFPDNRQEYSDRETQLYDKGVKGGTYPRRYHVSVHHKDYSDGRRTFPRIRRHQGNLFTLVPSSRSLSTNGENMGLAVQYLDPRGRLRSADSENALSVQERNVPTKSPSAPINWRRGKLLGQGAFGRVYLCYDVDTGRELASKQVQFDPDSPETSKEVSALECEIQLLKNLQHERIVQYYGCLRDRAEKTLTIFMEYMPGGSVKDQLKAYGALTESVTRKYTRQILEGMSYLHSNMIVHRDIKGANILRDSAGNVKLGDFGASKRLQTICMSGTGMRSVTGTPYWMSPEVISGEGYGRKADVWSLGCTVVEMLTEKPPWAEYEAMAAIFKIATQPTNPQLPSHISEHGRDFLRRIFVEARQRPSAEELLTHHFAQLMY

[3] = target: T3, Bromodomain-containing protein 1 (Homo sapiens) (UniProt O95696); experiment: Selectivity interaction (PWWP, WD40, and Tudor domain panel (DSLS measurements, literature)) EUB0000270b BRD1
T3 sequence (whole entry): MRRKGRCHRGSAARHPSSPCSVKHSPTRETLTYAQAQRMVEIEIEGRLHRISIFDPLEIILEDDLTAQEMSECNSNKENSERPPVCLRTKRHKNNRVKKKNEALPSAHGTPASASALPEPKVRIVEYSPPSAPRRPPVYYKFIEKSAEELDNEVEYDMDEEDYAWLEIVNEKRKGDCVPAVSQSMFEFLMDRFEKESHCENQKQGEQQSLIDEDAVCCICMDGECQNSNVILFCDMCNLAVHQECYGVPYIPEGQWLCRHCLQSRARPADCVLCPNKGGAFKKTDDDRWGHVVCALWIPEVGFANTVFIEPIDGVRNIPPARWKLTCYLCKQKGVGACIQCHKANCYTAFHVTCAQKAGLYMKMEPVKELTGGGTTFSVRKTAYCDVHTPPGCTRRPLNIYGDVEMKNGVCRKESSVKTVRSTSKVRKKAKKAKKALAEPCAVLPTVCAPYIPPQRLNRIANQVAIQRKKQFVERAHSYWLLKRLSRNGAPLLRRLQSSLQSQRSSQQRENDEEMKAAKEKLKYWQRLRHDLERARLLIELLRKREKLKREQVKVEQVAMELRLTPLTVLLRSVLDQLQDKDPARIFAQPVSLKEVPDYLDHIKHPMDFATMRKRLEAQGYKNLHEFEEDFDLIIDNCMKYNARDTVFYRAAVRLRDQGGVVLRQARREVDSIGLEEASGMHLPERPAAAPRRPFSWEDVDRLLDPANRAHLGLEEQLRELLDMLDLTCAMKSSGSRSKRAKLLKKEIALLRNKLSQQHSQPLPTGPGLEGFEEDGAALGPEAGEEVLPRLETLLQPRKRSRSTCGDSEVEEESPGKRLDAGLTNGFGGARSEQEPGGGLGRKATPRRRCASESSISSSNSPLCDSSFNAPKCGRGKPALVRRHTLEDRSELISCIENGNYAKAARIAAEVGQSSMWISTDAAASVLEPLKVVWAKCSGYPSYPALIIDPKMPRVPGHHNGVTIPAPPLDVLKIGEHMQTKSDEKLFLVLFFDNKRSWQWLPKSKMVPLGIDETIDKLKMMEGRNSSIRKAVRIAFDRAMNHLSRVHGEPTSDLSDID

[4] = target: Mitogen-activated protein kinase kinase kinase 1 (Homo sapiens, UniProt Q13233); experiment: Selectivity interaction (ActivX KiNativ screen (ex vivo kinase selectivity in human PBMCs)) EUB0001619a MAP3K1; type: cell-based; details: PBMC, at 1 µM
[5] = target: Interleukin-1 receptor-associated kinase 1 (Homo sapiens) (UniProt P51617); experiment: Selectivity interaction (KinomeScan (DiscoverX)) EUB0000666a IRAK1; details: at 10 µM
[6] = target: Fibroblast growth factor receptor 3 (Homo sapiens, UniProt P22607); experiment: Selectivity interaction (Kinase panel (DSF assay)) EUB0001558a FGFR3
Sequence of Fibroblast growth factor receptor 3 (P22607 23-806 limits assumed): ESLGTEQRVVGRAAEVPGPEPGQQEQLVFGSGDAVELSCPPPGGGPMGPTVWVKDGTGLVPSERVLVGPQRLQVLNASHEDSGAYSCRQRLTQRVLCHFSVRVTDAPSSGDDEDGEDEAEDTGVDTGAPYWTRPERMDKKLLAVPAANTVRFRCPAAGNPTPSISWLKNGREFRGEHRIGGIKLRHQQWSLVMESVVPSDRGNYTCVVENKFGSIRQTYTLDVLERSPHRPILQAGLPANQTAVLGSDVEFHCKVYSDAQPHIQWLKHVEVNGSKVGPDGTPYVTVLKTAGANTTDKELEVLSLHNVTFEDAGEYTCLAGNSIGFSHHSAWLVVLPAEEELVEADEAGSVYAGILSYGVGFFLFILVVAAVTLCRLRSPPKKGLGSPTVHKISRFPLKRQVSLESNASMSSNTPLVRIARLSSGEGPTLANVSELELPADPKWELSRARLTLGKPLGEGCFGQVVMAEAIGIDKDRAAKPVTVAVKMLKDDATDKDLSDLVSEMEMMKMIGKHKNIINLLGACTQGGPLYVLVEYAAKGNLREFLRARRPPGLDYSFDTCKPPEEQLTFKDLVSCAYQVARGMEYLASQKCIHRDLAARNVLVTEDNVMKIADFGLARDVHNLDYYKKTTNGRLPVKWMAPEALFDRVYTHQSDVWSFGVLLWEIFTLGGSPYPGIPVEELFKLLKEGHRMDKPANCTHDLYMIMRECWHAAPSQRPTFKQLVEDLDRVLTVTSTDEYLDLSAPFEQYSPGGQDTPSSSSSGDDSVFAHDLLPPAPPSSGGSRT

Sequence of Mitogen-activated protein kinase kinase kinase 1 (Q13233 whole entry): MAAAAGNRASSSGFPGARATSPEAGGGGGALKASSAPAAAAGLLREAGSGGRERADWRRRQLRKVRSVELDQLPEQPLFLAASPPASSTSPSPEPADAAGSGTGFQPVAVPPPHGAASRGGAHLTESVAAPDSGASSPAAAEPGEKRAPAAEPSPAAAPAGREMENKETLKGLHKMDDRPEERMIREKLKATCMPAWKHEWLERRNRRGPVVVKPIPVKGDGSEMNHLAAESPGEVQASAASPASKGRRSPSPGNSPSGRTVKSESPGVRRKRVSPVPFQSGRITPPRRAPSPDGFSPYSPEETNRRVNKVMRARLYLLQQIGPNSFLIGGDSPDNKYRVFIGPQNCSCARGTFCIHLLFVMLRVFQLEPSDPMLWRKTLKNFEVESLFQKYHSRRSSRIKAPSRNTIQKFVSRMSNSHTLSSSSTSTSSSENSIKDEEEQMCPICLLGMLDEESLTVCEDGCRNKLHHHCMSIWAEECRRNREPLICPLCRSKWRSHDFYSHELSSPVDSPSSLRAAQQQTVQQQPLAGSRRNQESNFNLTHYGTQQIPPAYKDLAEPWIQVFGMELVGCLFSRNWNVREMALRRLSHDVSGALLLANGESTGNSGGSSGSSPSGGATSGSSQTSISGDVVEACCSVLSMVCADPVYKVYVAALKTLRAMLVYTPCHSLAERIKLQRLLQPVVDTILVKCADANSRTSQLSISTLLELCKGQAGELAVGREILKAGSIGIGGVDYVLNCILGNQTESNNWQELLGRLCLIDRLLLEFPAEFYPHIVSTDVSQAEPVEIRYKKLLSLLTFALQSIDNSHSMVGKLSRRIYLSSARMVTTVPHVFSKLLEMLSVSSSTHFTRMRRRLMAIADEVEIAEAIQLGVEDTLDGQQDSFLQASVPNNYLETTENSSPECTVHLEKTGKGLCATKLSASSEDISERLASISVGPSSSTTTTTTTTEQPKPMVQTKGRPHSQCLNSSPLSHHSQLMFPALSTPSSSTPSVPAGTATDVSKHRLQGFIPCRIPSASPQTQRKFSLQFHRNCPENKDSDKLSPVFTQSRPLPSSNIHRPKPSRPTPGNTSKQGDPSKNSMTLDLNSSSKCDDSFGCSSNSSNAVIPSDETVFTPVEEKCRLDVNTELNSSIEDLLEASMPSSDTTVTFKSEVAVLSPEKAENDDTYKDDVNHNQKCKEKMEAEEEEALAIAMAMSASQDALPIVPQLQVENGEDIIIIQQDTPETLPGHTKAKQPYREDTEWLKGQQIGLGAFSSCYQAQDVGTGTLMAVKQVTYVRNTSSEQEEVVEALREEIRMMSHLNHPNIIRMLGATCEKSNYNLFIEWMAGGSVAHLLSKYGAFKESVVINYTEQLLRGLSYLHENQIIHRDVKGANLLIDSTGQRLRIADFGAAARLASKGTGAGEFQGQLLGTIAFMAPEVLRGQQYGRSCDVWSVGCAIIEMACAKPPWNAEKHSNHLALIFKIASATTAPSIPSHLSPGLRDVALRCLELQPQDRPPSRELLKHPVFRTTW
Sequence of Interleukin-1 receptor-associated kinase 1 (Homo sapiens) (P51617 whole entry, looked up): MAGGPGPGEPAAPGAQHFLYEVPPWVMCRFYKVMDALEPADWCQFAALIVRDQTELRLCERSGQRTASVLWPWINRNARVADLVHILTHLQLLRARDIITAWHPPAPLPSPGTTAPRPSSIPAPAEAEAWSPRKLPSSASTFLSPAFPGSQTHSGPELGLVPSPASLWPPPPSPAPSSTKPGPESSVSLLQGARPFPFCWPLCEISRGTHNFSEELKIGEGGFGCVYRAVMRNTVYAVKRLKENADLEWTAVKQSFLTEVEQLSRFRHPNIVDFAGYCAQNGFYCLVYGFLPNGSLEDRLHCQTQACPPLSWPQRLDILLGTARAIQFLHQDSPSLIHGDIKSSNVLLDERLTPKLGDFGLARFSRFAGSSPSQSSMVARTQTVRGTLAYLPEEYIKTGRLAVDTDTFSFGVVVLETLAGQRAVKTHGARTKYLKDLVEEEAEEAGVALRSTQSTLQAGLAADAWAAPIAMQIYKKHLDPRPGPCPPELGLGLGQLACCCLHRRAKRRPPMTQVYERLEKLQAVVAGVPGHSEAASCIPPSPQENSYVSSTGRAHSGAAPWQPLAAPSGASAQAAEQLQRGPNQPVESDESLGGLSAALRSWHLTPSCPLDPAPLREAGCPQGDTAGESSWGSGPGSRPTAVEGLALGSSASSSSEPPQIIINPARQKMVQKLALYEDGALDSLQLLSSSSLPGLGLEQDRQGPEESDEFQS

% of inhibition [1]: 21.1%
% of inhibition [2]: -0.9%
SMILES: CC[C@@H]1[C@H](F)C(=O)N[C@@H]1COc1nccc2cc(C(N)=O)c(OC)cc12 [ZIMLOVISERTIB]

dTagg [3]: -2.2 K
SMILES: Cc1cc(CN)cc(C)c1-c1ncn(C)c1-c1cncn1C

SMILES: N#Cc1cccc(-c2c[nH]c3ncnc(N4CCOCC4)c23)c1
% of inhibition [4]: 45%

SMILES: O=C(NOC[C@H](O)CO)c1ccc(F)c(F)c1Nc1ccc(I)cc1F
% of control [5]: 100%

SMILES: CC(C)(O)[C@H](F)CN1Cc2cc(NC(=O)c3cnn4cccnc34)c(N3CCOCC3)cc2C1=O
dTM [6]: 2.5 K
